Data from ChEMBL document CHEMBL3745592, “Synthesis of novel coumarin appended bis(formylpyrazole) derivatives: Studies on their antimicrobial and antioxidant activities” (Bioorg Med Chem Lett, 2016).
In brackets after ≈: the same amount, converted by molar mass.

What was measured:
[1] = Antioxidant activity assessed as DPPH free radical scavenging activity at 75 ug/ml after 20 mins by UV-vis spectrophotometry analysis; format: physicochemical
[2] = Antioxidant activity assessed as DPPH free radical scavenging activity at 100 ug/ml after 20 mins by UV-vis spectrophotometry analysis; format: physicochemical
[3] = Antioxidant activity assessed as hydroxyl radical scavenging activity at 75 ug/ml after 60 mins; format: physicochemical; details: 1 h
[4] = Antioxidant activity assessed as hydroxyl radical scavenging activity at 100 ug/ml after 60 mins; format: physicochemical; details: 1 h
Staphylococcus aureus = assay: Antibacterial activity against Staphylococcus aureus assessed as growth inhibition incubated for 24 hrs at 37 degC by broth dilution method; format: functional
Escherichia coli = assay: Antibacterial activity against Escherichia coli assessed as growth inhibition incubated for 24 hrs at 37 degC by broth dilution method; format: functional
Pseudomonas aeruginosa = assay: Antibacterial activity against Pseudomonas aeruginosa assessed as growth inhibition incubated for 24 hrs at 37 degC by broth dilution method; format: functional
Aspergillus niger = assay: Antifungal activity against Aspergillus niger assessed as growth inhibition incubated for 72 hrs at 37 degC by broth dilution method; format: functional
Aspergillus flavus = assay: Antifungal activity against Aspergillus flavus assessed as growth inhibition incubated for 72 hrs at 37 degC by broth dilution method; format: functional
Candida albicans = assay: Antifungal activity against Candida albicans assessed as growth inhibition incubated for 72 hrs at 37 degC by broth dilution method; format: functional
[5] = Antioxidant activity assessed as DPPH free radical scavenging activity at 25 ug/ml after 20 mins by UV-vis spectrophotometry analysis; format: physicochemical
[6] = Antioxidant activity assessed as DPPH free radical scavenging activity at 50 ug/ml after 20 mins by UV-vis spectrophotometry analysis; format: physicochemical

## C/C(=N\Nc1ccccc1)c1cc2c(C)cc(=O)oc2c(/C(C)=N/Nc2ccccc2)c1O
[1]
  inhibition (INH): 19.35%
[2]
  inhibition (INH): 22.22%
[3]
  inhibition (INH): 24.36%
[4]
  inhibition (INH): 29.65%
Staphylococcus aureus
  MIC90: 50 µg/mL (≈ 114 µM)
Escherichia coli
  MIC90: 25 µg/mL (≈ 56.8 µM)
Pseudomonas aeruginosa
  MIC90: 25 µg/mL (≈ 56.8 µM)
Aspergillus niger
  MIC90: 50 µg/mL (≈ 114 µM)
Aspergillus flavus
  MIC90: 50 µg/mL (≈ 114 µM)
Candida albicans
  MIC90: 50 µg/mL (≈ 114 µM)
[5]
  inhibition (INH): 15.03%
[6]
  inhibition (INH): 16.96%

## C/C(=N\Nc1cccc(C)c1)c1cc2c(C)cc(=O)oc2c(/C(C)=N/Nc2cccc(C)c2)c1O
[1]
  inhibition (INH): 13.97%
[2]
  inhibition (INH): 17.29%
[3]
  inhibition (INH): 24.22%
[4]
  inhibition (INH): 30.78%
Staphylococcus aureus
  MIC90: 50 µg/mL (≈ 107 µM)
Escherichia coli
  MIC90: 50 µg/mL (≈ 107 µM)
Pseudomonas aeruginosa
  MIC90: 25 µg/mL (≈ 53.4 µM)
Aspergillus niger
  MIC90: 75 µg/mL (≈ 160 µM)
Aspergillus flavus
  MIC90: 50 µg/mL (≈ 107 µM)
Candida albicans
  MIC90: 50 µg/mL (≈ 107 µM)
[5]
  inhibition (INH): 10.92%
[6]
  inhibition (INH): 11.8%

## Cc1cccc(-n2cc(C=O)c(-c3cc4c(C)cc(=O)oc4c(-c4nn(-c5cccc(C)c5)cc4C=O)c3O)n2)c1
[1]
  inhibition (INH): 18.78%
[2]
  inhibition (INH): 24.02%
[3]
  inhibition (INH): 26.49%
[4]
  inhibition (INH): 30.1%
Staphylococcus aureus
  MIC90: 75 µg/mL (≈ 138 µM)
Escherichia coli
  MIC90: 50 µg/mL (≈ 91.8 µM)
Pseudomonas aeruginosa
  MIC90: 25 µg/mL (≈ 45.9 µM)
Aspergillus niger
  MIC90: 75 µg/mL (≈ 138 µM)
Aspergillus flavus
  MIC90: 75 µg/mL (≈ 138 µM)
Candida albicans
  MIC90: 50 µg/mL (≈ 91.8 µM)
[5]
  inhibition (INH): 13.24%
[6]
  inhibition (INH): 16.4%

## C/C(=N\Nc1ccc(F)cc1)c1cc2c(C)cc(=O)oc2c(/C(C)=N/Nc2ccc(F)cc2)c1O
[1]
  inhibition (INH): 14.01%
[2]
  inhibition (INH): 17.45%
[3]
  inhibition (INH): 17.33%
[4]
  inhibition (INH): 26.6%
Staphylococcus aureus
  MIC90: 75 µg/mL (≈ 157 µM)
Escherichia coli
  MIC90: 50 µg/mL (≈ 105 µM)
Pseudomonas aeruginosa
  MIC90: 50 µg/mL (≈ 105 µM)
Aspergillus niger
  MIC90: 50 µg/mL (≈ 105 µM)
Aspergillus flavus
  MIC90: 75 µg/mL (≈ 157 µM)
Candida albicans
  MIC90: 75 µg/mL (≈ 157 µM)
[5]
  inhibition (INH): 8.49%
[6]
  inhibition (INH): 11.69%

## Cc1ccc(-n2cc(C=O)c(-c3cc4c(C)cc(=O)oc4c(-c4nn(-c5ccc(C)cc5)cc4C=O)c3O)n2)cc1
[1]
  inhibition (INH): 20.75%
[2]
  inhibition (INH): 24.56%
[3]
  inhibition (INH): 27.07%
[4]
  inhibition (INH): 31.48%
Staphylococcus aureus
  MIC90: 75 µg/mL (≈ 138 µM)
Escherichia coli
  MIC90: 50 µg/mL (≈ 91.8 µM)
Pseudomonas aeruginosa
  MIC90: 25 µg/mL (≈ 45.9 µM)
Aspergillus niger
  MIC90: 50 µg/mL (≈ 91.8 µM)
Aspergillus flavus
  MIC90: 75 µg/mL (≈ 138 µM)
Candida albicans
  MIC90: 50 µg/mL (≈ 91.8 µM)
[5]
  inhibition (INH): 16%
[6]
  inhibition (INH): 17.28%

## O=C1O[C@H]([C@@H](O)CO)C(O)=C1O [ASCORBIC ACID]
[1]
  inhibition (INH): 21.98%
[2]
  inhibition (INH): 24.25%
[5]
  inhibition (INH): 15.08%
[6]
  inhibition (INH): 16.87%

## COc1ccc(O)c(C(C)(C)C)c1.COc1ccc(O)cc1C(C)(C)C [BUTYLATED HYDROXYANISOLE]
[3]
  inhibition (INH): 25.58%
[4]
  inhibition (INH): 32.03%

## Cc1cc(=O)oc2c(-c3nn(-c4ccccc4)cc3C=O)c(O)c(-c3nn(-c4ccccc4)cc3C=O)cc12
[1]
  inhibition (INH): 20.08%
[2]
  inhibition (INH): 23.6%
[3]
  inhibition (INH): 25.9%
[4]
  inhibition (INH): 30.04%
Staphylococcus aureus
  MIC90: 50 µg/mL (≈ 96.8 µM)
Escherichia coli
  MIC90: 50 µg/mL (≈ 96.8 µM)
Pseudomonas aeruginosa
  MIC90: 50 µg/mL (≈ 96.8 µM)
Aspergillus niger
  MIC90: 50 µg/mL (≈ 96.8 µM)
Aspergillus flavus
  MIC90: 75 µg/mL (≈ 145 µM)
Candida albicans
  MIC90: 50 µg/mL (≈ 96.8 µM)
[5]
  inhibition (INH): 15.1%
[6]
  inhibition (INH): 17.34%

## Cc1cc(=O)oc2c(-c3nn(-c4ccc(Cl)cc4)cc3C=O)c(O)c(-c3nn(-c4ccc(Cl)cc4)cc3C=O)cc12
[1]
  inhibition (INH): 20.63%
[2]
  inhibition (INH): 23.61%
[3]
  inhibition (INH): 24.77%
[4]
  inhibition (INH): 32.07%
Staphylococcus aureus
  MIC90: 50 µg/mL (≈ 85.4 µM)
Escherichia coli
  MIC90: 25 µg/mL (≈ 42.7 µM)
Pseudomonas aeruginosa
  MIC90: 25 µg/mL (≈ 42.7 µM)
Aspergillus niger
  MIC90: 50 µg/mL (≈ 85.4 µM)
Aspergillus flavus
  MIC90: 50 µg/mL (≈ 85.4 µM)
Candida albicans
  MIC90: 100 µg/mL (≈ 171 µM)
[5]
  inhibition (INH): 15.58%
[6]
  inhibition (INH): 17.55%

## COc1ccc(-n2cc(C=O)c(-c3cc4c(C)cc(=O)oc4c(-c4nn(-c5ccc(OC)cc5)cc4C=O)c3O)n2)cc1
[1]
  inhibition (INH): 21.14%
[2]
  inhibition (INH): 24.59%
[3]
  inhibition (INH): 29.4%
[4]
  inhibition (INH): 35.13%
Staphylococcus aureus
  MIC90: 50 µg/mL (≈ 86.7 µM)
Escherichia coli
  MIC90: 50 µg/mL (≈ 86.7 µM)
Pseudomonas aeruginosa
  MIC90: 12.5 µg/mL (≈ 21.7 µM)
Aspergillus niger
  MIC90: 25 µg/mL (≈ 43.4 µM)
Aspergillus flavus
  MIC90: 50 µg/mL (≈ 86.7 µM)
Candida albicans
  MIC90: 50 µg/mL (≈ 86.7 µM)
[5]
  inhibition (INH): 14.2%
[6]
  inhibition (INH): 17.87%

## COc1ccc(N/N=C(\C)c2cc3c(C)cc(=O)oc3c(/C(C)=N/Nc3ccc(OC)cc3)c2O)cc1
[1]
  inhibition (INH): 19.7%
[2]
  inhibition (INH): 22.4%
[3]
  inhibition (INH): 26.36%
[4]
  inhibition (INH): 33.01%
Staphylococcus aureus
  MIC90: 25 µg/mL (≈ 49.9 µM)
Escherichia coli
  MIC90: 12.5 µg/mL (≈ 25 µM)
Pseudomonas aeruginosa
  MIC90: 12.5 µg/mL (≈ 25 µM)
Aspergillus niger
  MIC90: 12.5 µg/mL (≈ 25 µM)
Aspergillus flavus
  MIC90: 25 µg/mL (≈ 49.9 µM)
Candida albicans
  MIC90: 50 µg/mL (≈ 99.9 µM)
[5]
  inhibition (INH): 14.57%
[6]
  inhibition (INH): 17.17%

## Cc1cc(=O)oc2c(-c3nn(-c4ccc(F)cc4)cc3C=O)c(O)c(-c3nn(-c4ccc(F)cc4)cc3C=O)cc12
[1]
  inhibition (INH): 17.69%
[2]
  inhibition (INH): 19.44%
[3]
  inhibition (INH): 21.27%
[4]
  inhibition (INH): 29.47%
Staphylococcus aureus
  MIC90: 75 µg/mL (≈ 136 µM)
Escherichia coli
  MIC90: 75 µg/mL (≈ 136 µM)
Pseudomonas aeruginosa
  MIC90: 50 µg/mL (≈ 90.5 µM)
Aspergillus niger
  MIC90: 75 µg/mL (≈ 136 µM)
Aspergillus flavus
  MIC90: 75 µg/mL (≈ 136 µM)
Candida albicans
  MIC90: 100 µg/mL (≈ 181 µM)
[5]
  inhibition (INH): 11.62%
[6]
  inhibition (INH): 14.93%

## C/C(=N\Nc1ccc(Cl)cc1)c1cc2c(C)cc(=O)oc2c(/C(C)=N/Nc2ccc(Cl)cc2)c1O
[1]
  inhibition (INH): 17.41%
[2]
  inhibition (INH): 20.62%
[3]
  inhibition (INH): 23.49%
[4]
  inhibition (INH): 30.75%
Staphylococcus aureus
  MIC90: 50 µg/mL (≈ 98.2 µM)
Escherichia coli
  MIC90: 50 µg/mL (≈ 98.2 µM)
Pseudomonas aeruginosa
  MIC90: 25 µg/mL (≈ 49.1 µM)
Aspergillus niger
  MIC90: 25 µg/mL (≈ 49.1 µM)
Aspergillus flavus
  MIC90: 50 µg/mL (≈ 98.2 µM)
Candida albicans
  MIC90: 50 µg/mL (≈ 98.2 µM)
[5]
  inhibition (INH): 10.73%
[6]
  inhibition (INH): 14.75%

## C/C(=N\Nc1ccc(C)cc1)c1cc2c(C)cc(=O)oc2c(/C(C)=N/Nc2ccc(C)cc2)c1O
[1]
  inhibition (INH): 19.43%
[2]
  inhibition (INH): 22.45%
[3]
  inhibition (INH): 25.54%
[4]
  inhibition (INH): 30.52%
Staphylococcus aureus
  MIC90: 25 µg/mL (≈ 53.4 µM)
Escherichia coli
  MIC90: 25 µg/mL (≈ 53.4 µM)
Pseudomonas aeruginosa
  MIC90: 25 µg/mL (≈ 53.4 µM)
Aspergillus niger
  MIC90: 50 µg/mL (≈ 107 µM)
Aspergillus flavus
  MIC90: 25 µg/mL (≈ 53.4 µM)
Candida albicans
  MIC90: 50 µg/mL (≈ 107 µM)
[5]
  inhibition (INH): 14.29%
[6]
  inhibition (INH): 16.65%

## O=C(O)c1cn(C2CC2)c2cc(N3CCNCC3)c(F)cc2c1=O [CIPROFLOXACIN]
Staphylococcus aureus
  MIC90: 25 µg/mL (≈ 75.4 µM)
Escherichia coli
  MIC90: 25 µg/mL (≈ 75.4 µM)
Pseudomonas aeruginosa
  MIC90: 12.5 µg/mL (≈ 37.7 µM)

## OC(Cn1cncn1)(Cn1cncn1)c1ccc(F)cc1F [FLUCONAZOLE]
Aspergillus niger
  MIC90: 25 µg/mL (≈ 81.6 µM)
Aspergillus flavus
  MIC90: 25 µg/mL (≈ 81.6 µM)
Candida albicans
  MIC90: 50 µg/mL (≈ 163 µM)
